In publication PMC4107925, “Diverse modes of binding in structures of Leishmania major N-myristoyltransferase with selective inhibitors” (IUCrJ, 2014):
Where “and” joins values, the source holds several entries; their conditions need not be identical. Equal values may be shown once.

Legend:
LdNMT = biological target: T1, LdNMT (Leishmania donovani, UniProt D0AB09); test: NMT enzyme inhibition assay (non-radioactive), L. donovani NMT; type: biochemical; conditions: for LE (ligand efficiency): LE = 1.4(-logLdNMT IC50)/N, N = number of non-H atoms; for IC50: read-out: IC50 LdNMT
T1 sequence (D0AB09 1-421): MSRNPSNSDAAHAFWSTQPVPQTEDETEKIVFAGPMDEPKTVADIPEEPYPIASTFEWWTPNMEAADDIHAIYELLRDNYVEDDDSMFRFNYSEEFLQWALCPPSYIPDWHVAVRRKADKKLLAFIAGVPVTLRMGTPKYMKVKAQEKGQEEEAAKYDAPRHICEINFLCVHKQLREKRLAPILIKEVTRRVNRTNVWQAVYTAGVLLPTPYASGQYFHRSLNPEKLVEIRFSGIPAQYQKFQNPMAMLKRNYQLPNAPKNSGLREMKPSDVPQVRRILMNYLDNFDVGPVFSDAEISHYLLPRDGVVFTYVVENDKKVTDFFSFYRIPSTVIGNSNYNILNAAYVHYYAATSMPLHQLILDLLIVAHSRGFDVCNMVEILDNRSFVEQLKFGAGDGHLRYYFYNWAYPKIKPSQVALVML

LmNMT = LmNMT (Leishmania major, UniProt Q4Q5S8); test: biochemical; conditions: read-out: IC50 LmNMT
Chain of LmNMT (Q4Q5S8 5-421 limits assumed): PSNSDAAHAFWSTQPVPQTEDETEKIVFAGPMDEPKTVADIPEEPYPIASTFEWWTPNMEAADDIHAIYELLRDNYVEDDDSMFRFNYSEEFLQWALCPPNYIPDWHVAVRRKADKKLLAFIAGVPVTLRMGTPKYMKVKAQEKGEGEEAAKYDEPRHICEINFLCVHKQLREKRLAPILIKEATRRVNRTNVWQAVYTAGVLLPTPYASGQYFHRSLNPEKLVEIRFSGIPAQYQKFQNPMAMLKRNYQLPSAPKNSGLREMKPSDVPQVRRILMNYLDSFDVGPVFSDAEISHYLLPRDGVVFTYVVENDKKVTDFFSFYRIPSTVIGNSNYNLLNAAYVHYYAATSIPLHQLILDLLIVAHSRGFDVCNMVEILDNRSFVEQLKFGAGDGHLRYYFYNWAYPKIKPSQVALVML

HsNMT1 = biological target: T2, HsNMT1 (Homo sapiens, UniProt P30419); test: NMT enzyme inhibition assay (non-radioactive), human NMT; type: biochemical; conditions: for selectivity factor: LdNMT IC50 versus human enzyme IC50; for IC50: human NMT isoform 1 (HsNMT1), read-out: IC50 HsNMT
T2 sequence (P30419 1-496): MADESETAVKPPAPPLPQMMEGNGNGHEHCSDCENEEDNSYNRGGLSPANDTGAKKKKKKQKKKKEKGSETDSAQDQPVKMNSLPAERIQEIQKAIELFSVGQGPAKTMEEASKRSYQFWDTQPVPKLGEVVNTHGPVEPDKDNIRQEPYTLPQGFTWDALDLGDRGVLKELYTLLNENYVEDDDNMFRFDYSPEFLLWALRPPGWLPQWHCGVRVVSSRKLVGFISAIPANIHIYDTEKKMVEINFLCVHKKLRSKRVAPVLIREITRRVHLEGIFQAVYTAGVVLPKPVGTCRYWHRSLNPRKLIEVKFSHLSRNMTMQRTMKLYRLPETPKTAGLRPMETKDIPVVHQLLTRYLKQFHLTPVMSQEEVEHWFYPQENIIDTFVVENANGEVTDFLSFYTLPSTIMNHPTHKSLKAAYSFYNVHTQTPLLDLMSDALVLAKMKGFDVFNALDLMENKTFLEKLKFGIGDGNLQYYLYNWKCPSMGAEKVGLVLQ

| SMILES | LE (ligand efficiency) (LdNMT) | IC50 (LdNMT) | IC50 (LmNMT) [nM] | selectivity factor (HsNMT1) | IC50 (HsNMT1) | selectivity against HsNMT1 (HsNMT1; LdNMT over HsNMT1) |
| --- | --- | --- | --- | --- | --- | --- |
| c1cncc(CCNCc2cccc(-c3cccc(CN4CCc5ncsc5C4)c3)c2)c1 [CWZ] | 0.29 | 900 nM and 914 nM | 1020 ± 100 | 50 | 45000 nM and 45500 nM | – |
| N[C@@H](CC(=O)N1C[C@H](CO)[C@@H](c2ccc(Cl)cc2)C1)Cc1ccc(Cl)cc1 [A6K] | 0.35 | 77 ± 7 nM | 31 ± 4 | ~80 | 5000 nM and 5160 nM | – |
| CN1CCC(N(C)c2nc(N(C)CCC#N)c3sccc3n2)CC1 [6KV] | 0.34 | 250 nM and 247 nM | 299 ± 89 | – | 3560 ± 490 nM | approximately tenfold |
